Two compounds from US20140024683A1, “CHLORIDE CHANNEL AND CHLORIDE TRANSPORTER MODULATORS FOR THERAPY IN SMOOTH MUSCLE DISEASES” (priority 2011, published 2014) can be followed below.

Assay [1] concerns guinea pig tracheal rings. The assay is described as follows: Organ bath muscle force, TEA-induced contraction of guinea pig tracheal rings (Examples 1, 4, 13). As to conditions: 10 mM TEA; 100 μM niflumic acid. The method, then: Epithelial denuded guinea pig tracheal rings were suspended in organ baths under 1 g resting tension with continuous digital recordings of muscle force. In separate studies, guinea pig airway smooth muscle cells were enzymatically dispersed and cultured.
Human muscle tissue was acquired from excess lung airways trimmed during surgery from healthy lung transplant donors. Acquired tissue was stored overnight at […]. Airway smooth muscle contractions measured ex vivo in organ baths were performed as previously described (Gallos et al., 2008; Gallos et al., 2009, Gallos et al., 2011; Gleason et al., 2010; Yim et al., 2011; Mitzuta et al., 2008). Closed guinea pig tracheal rings or strips of human airway smooth muscle (tracheal or main stem bronchus) were suspended in organ baths, which had 95% oxygen constantly perfusing through Dulbecco's Modified Eagle Medium. Rings were cut on the cartilaginous borders of the smooth muscle. The epithelial layer was dissected under microscopic assistance. Briefly, tissues were suspended in a water-jacketed (37° C.) 2-ml organ bath (Radnoti Glass Technology, Monrovia, Calif.) and attached to a Grass FT03 force transducer (Grass Telefactor, West Warwick, R.I.) coupled to a computer via BioPac hardware and Acqknowledge 7.3.3 software (Biopac Systems, Goleta, Calif.). Kreb's-Henseleit (KH) buffer was continuously bubbled with 95% oxygen and 5% carbon dioxide and tissues were allowed to equilibrate at 1 g (guinea pig) or 1.5 g (human) isotonic force for 1 hour with fresh KH buffer changes every 15 minutes.
Following equilibration, in guinea pig experiments, the capsaicin analog N-vanillylnonanamide (10 μM final) was added to the organ baths to first activate and then deplete nonadrenergic, noncholinergic nerves. […]. In experiments with human tissue, no vanillylnonanamide pretreatment was done. To avoid bias between treatment groups, tissues were contracted to individually calculated EC50 values for acetylcholine and tissues with similar Emax values were randomly assigned to treatments within individual experiments. Following extensive KH buffer changes (8-9 times) tissues were allowed to stabilize at isotonic resting tension (about 1.0 g). To remove confounding effects of other procontractile pathways, each bath received a complement of antagonists 20 minutes prior to subsequent contractile challenge. The antagonists included pyrilamine (10 μM; H1 histamine receptor antagonist), and tetrodotoxin (1 μM; blocker of endogenous cholinergic or C-fiber neuronal effects) in guinea pig experiments or pyrilamine and 10 μM MK571 (leukotriene receptor antagonist) in human tissue experiments. […]
Airway smooth muscle contractions measured ex vivo in organ baths were performed as set forth above. […]

In assay [2] the test system is guinea pig tracheal rings. The assay is described as follows: Ex vivo airway smooth muscle force, prevention or relaxation of a contraction (Example 5). As to conditions: solo therapy; vs vehicle. The method, then: The chloride channel blocker NPPB and the chloride transporter blocker bumetanide were evaluated for their ability to prevent an initial contraction (n=5) (FIG. 23A) or to relax an existing contraction (n=6) (FIG. 23B).
As a proof of concept for chloride channel blockade in general, another chloride channel blocker, 5-nitro-2-(3-phenylpropylamino)-benzoic acid (NPPB) was used in an ex vivo guinea pig airway smooth muscle model.

Assay [3] relates to guinea pig tracheal rings. The experiment in a line: Relaxation of the maintenance phase of a pre-established acetylcholine contraction, guinea pig tracheal rings. As to conditions: alone; pre-contracted with EC50 acetylcholine. The method, then: Animal protocols were approved by the Columbia University Animal Care and Use Committee. Male Hartley guinea pigs weighing approximately 400 g were anesthetized with intraperitoneal injection of sodium pentobarbital (100 mg/kg). Trachea were removed and transferred to ice cold Krebs-Henseleit (KH) buffer of the following composition (in mM): NaCl 118, KCl 5.6, CaCl2 0.5, MgSO4 0.24, NaH2PO4 1.3, NaHCO3 25, glucose 5.6, pH 7.4. Epithelial-denuded tracheal rings were prepared using a dissecting microscope. Epithelium was removed by gently passing cotton fibers through the lumen of the tracheal rings. The rings were suspended in 4 mL-water jacketed organ baths (37° C.: Radnoti Glass Technology, Monrovia, Calif.) and connected to a Grass FT03 force transducer (Grass Telefactor, West Warwick, R.I.) using silk sutures. The transducers were coupled to the computer with BioPac hardware and data was collected using Acqknowledge 7.3.3 software (BioPac Systems, Goleta, Calif.). KH buffer was bubbled with a gas mixture of 95% oxygen and 5% carbon dioxide and buffer was exchanged every 15 minutes for 1 hour during equilibration of tracheal rings at 1 g resting tension. […].
Chloride channel blockers were then tested against the plateau phase of an established acetylcholine contraction. […]

In assay [4] the test system is human airway smooth muscle. The assay is described as follows: Relaxation of acetylcholine contraction in human airway smooth muscle strips. As to conditions: 10 μM bumetanide alone. On the procedure: Studies using de-identified human tissue were reviewed by the Columbia University Institutional Review Board and deemed not human subjects research. Tissues were obtained from healthy, normal organ donor discarded surgical waste subsequent to lung transplant surgery. Tissues were collected after transplant and placed in DMEM media (GIBCO) and bubbled overnight in 5% carbon dioxide and 95% oxygen at 4° C. The following morning, the smooth muscle tissue was carefully dissected under a dissecting microscope and the epithelium removed. The strips were anchored in the organ bath as described above using KH buffer of the same composition. The strips were allowed to equilibrate for 1 hour with buffer exchanges every 15 minutes and were treated with 10^−6 M tetrodotoxin, 10^−5 M pyrilamine, and 10^−5
M MK571. Strips were contracted with an EC50 dose of acetylcholine (Ach)
This experiment was then repeated with human airway smooth muscle to investigate clinical relevance as a model of bronchospasm in humans.

Regarding `O=C(O)c1cccnc1Nc1cccc(C(F)(F)F)c1` [niflumic acid], the “relaxation of TEA-induced contraction” value in assay [1] is on record as 82.5%.

For `CCCCNc1cc(C(=O)O)cc(S(N)(=O)=O)c1Oc1ccccc1` [bumetanide], the “relaxation of an existing contraction” value in assay [2] is reported as “effective in relaxing an existing contraction”. In assay [3], the “relaxation of established acetylcholine contraction” value is reported as “significantly relaxed an acetylcholine contraction”. The “relaxation of acetylcholine contraction” value in assay [4] was “failed to relax an acetylcholine contraction”.
